Test results taken from US20100234308A1, “WAKE-UP REMEDY” (Kyowa Hakko Kogyo Co., Ltd., priority 2006, published 2010).
Peptide text beside a SMILES is read from it.

Key:
healthy person = experiment: Wake-up remedial effect of alanylglutamine on daily consumption (Test Examples 1 and 2); assay type: in vivo, human; settings: continuously for 1 month
Text: Test examples in which the wake-up remedial effect of alanylglutamine was examined are indicated below.

[1] = cited from earlier work
[2] = cited from earlier work; remark: listed apart in the source

| SMILES | awaking (healthy person; 0.5 g daily before going to bed) | awaking (healthy person; 1.5 g daily) | degradation in the body [1] | heat stability ([2]; compared to glutamine) | solubility in aqueous solutions ([2]; compared to glutamine) | solubility [2] |
| --- | --- | --- | --- | --- | --- | --- |
| C[C@H](N)C(=O)N[C@@H](CCC(N)=O)C(=O)O [alanylglutamine] (H-Ala-Gln-OH) | improvement in awaking | improvement in awaking | immediately degraded into alanine and glutamine | superior | superior |  |
| NC(=O)CC[C@H](N)C(=O)O [glutamine, reference compound] |  |  |  |  |  | low-solubility |
